This passage reports inhibition results from patent US4808612A, “2-Arylbenzo(b)(1,6)naphthyridines as inhibitors of interleukin 1” (American Home Products Corporation, priority 1987, dated 1989).

For the experiment, the system named is IL 1-induced release of neutral protease from rabbit articular chondrocytes. The experiment can be described thus: Inhibition of the IL 1-induced release of neutral protease from rabbit articular chondrocytes (azocoll neutral protease assay). Conditions: Oryctolagus cuniculus, Chondrocyte, purified human IL 1, 24 h after IL 1 stimulation, read-out: % Inhibition (S.D). Type of experiment: cell-based. How it is done:
The ability of the compounds of the inventions to inhibit interleukin 1 is measured by the ability of the test compounds to inhibit the IL 1-induced release of neutral protease from rabbit articular chondrocytes.
This assay is carried out as follows:
Isolation of rabbit chondrocytes:
Male New Zealand White rabbits are anesthetized with 50 mg/kg of ketamine (i.m.) and killed by an intracardiac injection of 3 mls. of Nembutal. The knee joints of both legs are resected and the articular surfaces are exposed. Cartilage slices are obtained using a scalpel and are placed in a tissue culture dish (100 mm diameter) containing 10 mls of Hank's balanced salt solution (HBSS). The chondrocytes within the cartilage slices are then liberated by a series of enzyme digestions. The slices are incubated for 10 min. at 37° C. in 0.05% hyaluronidase (Sigma H-3884), rinsed with HBSS and incubated with 0.2% trypsin (Sigma T-2395) for 10 min. at 37° C. The slices are rinsed again and incubated for 10 mins. at 37° C. with 1.2% collagenase (Sigma C-5138). The slices are then rinsed again with HBSS and resuspended in 10 ml of Ham's F-12 medium containing 10% fetal bovine calf cerum (FCS) and 0.2% collagenase and incubated overnight at 37° C. in a 5% CO2 incubator. The next day, the medium containing the digested cartilage fragments and liberated chondrocytes is transferred to a 15 ml centrifuge tube and the cells are collected by centrifugation and washed twice and resuspended in Ham's F-12 medium. The cells are then plated into 24-well tissue culture plates (2×10^5 cells/well) and incubated at 37° C. until confluent (usually 4-6 days).
Stimulation of chondrocytes and drug treatment:
The confluent chondrocytes are rinsed twice with serum-free Ham's F-12 medium and 1 ml is added to each well. Fifty μl of purified human IL 1 (100 Units/ml; Genzyme Corporation, Boston, MA) is then added to stimulate these cells to secrete neutral protease. To measure drug effects, the cells are treated with test compound 10 min. prior to addition of IL 1. The standard screening dose is 10 μM. Twenty-four hours after IL 1 stimulation, supernatant fluids are collected and assayed for neutral protease activity.
The neutral protease activity of chondrocyte supernatant fluids is determined by their ability to degrade an insoluble protease substrate, azocoll (Sigma). Supernatants are treated for 10 min. at room temperature with 350 μM p-aminophenylmurcuric acetate to activate the latent enzyme. Three hundred μl of supernatant is then mixed with 500 μl of a 20 mg/ml suspension of azocoll and incubated at 37° C. for 18-24 hrs. with gentle rocking. The mixtures are centrifuged and the amount of substrate hydrolyzed is determined by measuring the absorbance of the supernatant at 520 nm.
Drug effects are calculated as the % change in enzyme activity (absorbance)by supernatants from drug-treated chondrocytes relative to enzyme activity of supernatants from vehicle-treated chondrocytes as follows: [formula]

For orientation: inhibition means how much of the control response was suppressed. As for `N#Cc1ccc(N2CCc3nc4cc(F)ccc4c(Cl)c3C2)cc1` [Example 11, 4-(10-Chloro-7-fluoro-3,4-dihydrobenzo[b][1,6]naphthyridin-2(1H)-yl)benzonitrile, 1/4 hydrate], the inhibition at 10 µM was less than 20%.

As for `Fc1ccc(N2CCc3nc4cc(Cl)ccc4c(Cl)c3C2)cc1` [Example 4, 7,10-Dichloro-2-(4-fluorophenyl)-1,2,3,4-tetrahydrobenz[b][1,6]naphthyridine], the inhibition at 1 µM was 9 ± 20% and the inhibition at 10 µM came to 76 ± 29%.

As to `N#Cc1ccc(N2CCc3nc4ccc(Cl)cc4c(Cl)c3C2)cc1` [Example 9, 4-(8,10-Dichloro-3,4-dihydrobenzo[b][1,6]naphthyridin-2(1H)-yl)benzonitrile, 1/4 hydrate], the inhibition at 1 µM came to 43% and the inhibition at 10 µM worked out at 86%.

For the compound `N#Cc1ccc(N2CCc3nc4ccccc4c(Cl)c3C2)cc1` [Example 5, 4-(10-Chloro-3,4-dihydrobenzo[b][1,6]naphthyridine-2(1H)-yl)benzonitrile, hemihydrate], the inhibition at 10 µM is 66 ± 29%.

For `Cc1ccc2c(Cl)c3c(nc2c1)CCN(c1ccc(C#N)cc1)C3` [Example 10, 4-(10-Chloro-3,4-dihydro-7-methylbenzo[b][1,6]naphthyridin-2(1H)-yl)benzonitrile, 1/5 ethyl acetate], the inhibition at 10 µM was 33%.

Turning to `CCOC(=O)c1ccc(N2CCc3nc4cc(Cl)ccc4c(Cl)c3C2)cc1` [Example 2, 4-(7,10-Dichloro-3,4-dihydrobenzo[b][1,6]naphthyridin-2(1H)-yl)benzoic acid ethyl ester], the inhibition at 10 µM was 35 ± 16%.

For `CS(=O)(=O)c1ccc(N2CCc3nc4cc(Cl)ccc4c(Cl)c3C2)cc1` [Example 3, 7,10-Dichloro-1,2,3,4-tetrahydro-2-(4-methylsulfonyl)phenylbenzo[b][1,6]naphthyridine], the inhibition at 0.1 µM turned out to be 69 ± 1%, the inhibition at 1 µM came to 66 ± 1% and the inhibition at 10 µM was 62 ± 2%.

In the case of `N#Cc1ccc(N2CCc3nc4cc(Cl)ccc4c(Cl)c3C2)cc1` [Example 1, 4-(7,10-Dichloro-3,4-dihydrobenzo[b][1,6]naphthyridin-2(1H)-yl)benzonitrile], the inhibition at 10 µM turned out to be 22 ± 1%.

Turning to `N#Cc1ccc(N2CCc3nc4cc(Cl)ccc4c(NNc4ccccc4)c3C2)cc1` [Example 12, 4-[7-Chloro-3,4-dihydro-10-(2-phenylhydrazino)benzo[b][1,6]naphthyridin-2(1H)-yl]benzonitrile, hydrate], the inhibition at 10 µM is 69%.

Regarding `CCOC(=O)c1ccc(N2CCc3nc4ccccc4c(Cl)c3C2)cc1` [Example 8, 4-(10-Chloro-3,4-dihydrobenzo[b][1,6]naphthyridin-2(1H)-yl)benzoic acid ethyl ester], the inhibition at 0.1 µM was found to be 40%, the inhibition at 1 µM was found to be 43% and the inhibition at 10 µM was 91%.
